{
  "source": "patent US20060010514A1",
  "about": "“Polynucleotides encoding mature AHASL proteins for creating imidazolinone-tolerant plants” (BASF Plant Science GmbH, priority 2004, published 2006)",
  "key": {"[1]": {"tested_on": "wheat lines with S653(At)N mutation in AHASL1A", "test": "herbicide spray assay, greenhouse-grown mutagenized wheat lines", "assay_type": "in vivo, Triticum aestivum", "details": "0-9 rating scale (0=no injury; 9=highest injury); after spraying with imazamox; mutation in 1A", "method": "(§1) The most common mutation observed in wheat results in a Ser to Asn substitution at the position equivalent to Ser653 in Arabidopsis (termed S653(At)N). Typically, 24 individuals from each mutagenized line were scored on a 0-9 rating scale (0=no injury; 9=highest injury) after spraying with a rate of imazamox sufficient for detecting differences in the greenhouse-grown plants (FIG. 4). For each line, the specific gene mutated was determined. A clear correlation was found between the ratings from herbicide spray assays and the specific homoeolog that was mutated at this position."}, "[2]": {"tested_on": "wheat lines with S653(At)N mutation in AHASL1D", "test": "herbicide spray assay, greenhouse-grown mutagenized wheat lines", "assay_type": "in vivo, Triticum aestivum", "details": "0-9 rating scale (0=no injury; 9=highest injury), after spraying with imazamox", "method": "as §1"}, "[3]": {"tested_on": "wheat lines with S653(At)N mutation in AHASL1B", "test": "herbicide spray assay, greenhouse-grown mutagenized wheat lines", "assay_type": "in vivo, Triticum aestivum", "details": "0-9 rating scale (0=no injury; 9=highest injury); after spraying with imazamox; mutation in 1B", "method": "as §1"}, "[4]": {"tested_on": "AHAS of S653(At)N mutant in AHASL1A", "test": "AHAS assay on extracts of S653(At)N mutants", "assay_type": "biochemical, Triticum aestivum", "details": "100 μM imazapyr, several backgrounds", "text": "(§2) The deletions, insertions, and substitutions of the protein sequences encompassed herein are not expected to produce radical changes in the characteristics of the protein. However, when it is difficult to predict the exact effect of the substitution, deletion, or insertion in advance of doing so, one skilled in the art will appreciate that the effect will be evaluated by routine screening assays. That is, AHASL function can be evaluated by AHAS enzyme activity assays in the presence and absence of an imidazolinone herbicide. See, for example, Singh et al. ((1988) Anal. Biochem. 171:173-179), herein incorporated by reference.\n(§3) To obtain an understanding of the effect of each mutation on the level of enzyme sensitivity to the herbicides, AHAS assays were performed on S653(At)N mutants in all three genes using individuals from several backgrounds (representative data in FIG. 6A). […] Also, a double mutant between 1A and 1D retained 63% of AHAS activity (Pozniak et al. submitted). […] In durum wheat (T. turgidum) each homeolog appears to contribute equally to the AHAS pool (FIG. 6B)."}, "[5]": {"tested_on": "AHAS of S653(At)N mutant in AHASL1D", "test": "AHAS assay on extracts of S653(At)N mutants", "assay_type": "biochemical, Triticum aestivum", "text": "as §2, §3"}, "[6]": {"tested_on": "AHAS of S653(At)N mutant in AHASL1B", "test": "AHAS assay on extracts of S653(At)N mutants", "assay_type": "biochemical, Triticum aestivum", "text": "as §2, §3"}, "[7]": {"tested_on": "AHAS of double mutant between 1A and 1D", "details": "herbicide not restated, follows the 100 μM imazethapyr sentence; cited from earlier work"}},
  "data": [
    {"smiles": "COCc1cnc(C2=NC(C)(C(C)C)C(=O)N2)c(C(=O)O)c1", "note": "(stereo not drawn) [imazamox]", "values": [
      {"measurement": "median injury", "setting": "[1]", "result": 6.4},
      {"measurement": "median injury", "setting": "[2]", "result": 4.0},
      {"measurement": "median injury", "setting": "[3]", "result": 5.4}
    ]},
    {"smiles": "CC(C)C1(C)N=C(c2ncccc2C(=O)O)NC1=O", "note": "(stereo not drawn) [imazapyr]", "values": [
      {"measurement": "AHAS activity in the presence of herbicide", "setting": "[4]", "result": 33, "unit": "%"},
      {"measurement": "AHAS activity in the presence of herbicide (level of insensitivity)", "setting": "[5]; 100 μM imazapyr, AHASL1D S653(At)N mutant, several backgrounds", "result": 38, "unit": "%"},
      {"measurement": "AHAS activity in the presence of herbicide", "setting": "[6]; 100 μM imazapyr, AHASL1B S653(At)N mutant, several backgrounds", "result": 25, "unit": "%"}
    ]},
    {"smiles": "CCc1cnc(C2=NC(C)(C(C)C)C(=O)N2)c(C(=O)O)c1", "note": "(stereo not drawn) [imazethapyr]", "values": [
      {"measurement": "AHAS activity retained", "setting": "[7]", "result": 63, "unit": "%"},
      {"measurement": "AHAS activity in the presence of herbicide", "setting": "[5]; 100 μM imazethapyr, AHAS1D mutant extract, CDC Teal background", "result": 40, "unit": "%"},
      {"measurement": "AHAS activity in the presence of herbicide", "setting": "[6]; 100 μM imazethapyr, AHAS1B mutant extract, CDC Teal background", "result": 30, "unit": "%"}
    ]}
  ]
}
